Values joined by “and” are separate entries in the source; they are usually repeats but may differ in a detail not shown here. Identical values can stand only once.
System: NCI-H510 multicellular tumor spheroid growth, % test/control
Assay: Anticancer human tumor NCI-H510 cell line growth inhibition [Asc];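 also: spheroids exposed to agents for 7 days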;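 as to viability, T/C: 100% = DMSO vehicle control wells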
Conditions: for viability, T/C: stronger effect = lower value
Description: Multicellular complex tumor spheroid response to apoptosis pathway targeting inhibitors Alrizomadlin, Pelcitoclax, and Dasminapant in combination with a variety of drugs and investigational agents in selected tumor cell lines
The MDM2 inhibitor alrizomadlin, the Bcl-2/Bcl-xL inhibitor pelcitoclax, and the IAPs inhibitor dasminapant were evaluated both individually and in combination with standard of care and investigational anticancer small molecules within a complex spheroid model of solid tumors. . Complex spheroids include a stromal component modeled by human endothelial cells (HUVEC) and fibroblasts modeled by human mesenchymal stem cells (MSCs). The concentration ranges selected for each drug and investigational agent were based upon clinically achievable concentrations if the clinical Cmax of the agent was known.
Compounds. The drugs and investigational agents: alrizomadlin (APG-115; NSC831270), pelcitoclax (APG-1252; NSC835773), dasminapant (APG-1387;NSC834197), TAK-243 (NSC785004), copanlisib (NSC809693), olaparib (NSC753686), talazoparib (NSC767125), cobimetinib (NSC 768068), eltanexor (KPT-8602, NSC 794443), abemaciclib (NSC 768073), sotorasib (NSC818433), adagrasib (NSC 831453), MRTX-1133 (NSC 836407), Iadademestat (ORY1001, NSC 806812), and RMC-4630 (NSC839698), were obtained from the NCI Developmental Therapeutics Program Chemical Repository. The FDA-approved anticancer drug set is available from the Developmental Therapeutics Program at https://dtp.cancer.gov/organization/dscb/obtaining/available plates.htm. […] The stock solutions were prepared in dimethyl sulfoxide (DMSO, Sigma-Aldrich, St. Louis, MO, cat. D2650) at 800-fold the tested concentration and stored at -70 degrees C prior to their use. All drugs and investigational agents were tested over a range starting from a high concentration at or near the clinical Cmax and decreasing in half-log increments. If the clinical Cmax for an agent had not been determined, the highest concentration tested was 10 microM.
The patient-derived cancer (PDC) cell lines include five colon adenocarcinomas: 186277-243-T-J2-PDC, 616215-338-R-J1-PDC, 439559-082-T-J2-PDC, 463943-066-T-J2-PDC, and 519858-162-T-J1-PDC; three pancreatic carcinomas: 323965-272-R-J2-PDC, 521955-158-R6-J3-PDC, and 521955-158-R2-J5-PDC; two uterine sarcomas: 327498-152-R-J2-PDC and 993429-296-R-J1-PDC; two rhabdomyosarcomas: 755483-174-R-J1-PDC and 772245-204-R-J1-PDC; two soft tissue sarcomas: 126254-015-R-J1-PDC and 494315-158-R-J1-PDC; two malignant fibrous histiocytomas: 317291-083-R-J1-PDC and 596521-263-R-J1-PDC; two breast carcinomas: 171881-019-R-J1-PDC and 885512-296-R-J2-PDC; and one ovarian carcinoma: 6556581-035-R-J-PDC were obtained from the NCI PDMR, (https://pdmr.cancer.gov). The established cell lines HSSY-2 synovial sarcoma (RRID:CVCL 8719), SYO-1 synovial sarcoma (RRID:CVCL_7146), MPNST malignant peripheral neural sheath tumor were obtained from the Sloan Kettering Institute. The following established cell lines were purchased from the American Type Culture Collection (ATCC, Manassas, VA), Sor the received from the NCI repository:, PANC-1 pancreatic carcinoma (CRL-1469, RRID:CVCL_0480), OVCAR-5 ovarian carcinoma (RRID:CVCL_1628), OVCAR-8 ovarian carcinoma (RRID:CVCL_1629), , MCF-7 breast carcinoma (CRL-12584, RRID:CVCL_0031), MDA-MB-231 breast carcinoma (CRL-12532, RRID:CVCL_0062), NCI-H1876 small cell lung carcinoma (CRL-5902, RRID:CVCL_1503), NCI-H510A small cell lung carcinoma (HTB-184, RRID:CVCL_1565), NCI-H1417 (CRL-5869, RRID:CVCL_1469), and NCI-H196 small cell lung carcinoma (CRL-5823, RRID:CVCL_1509). Dr. Peter Houghton (Greehey Children's Cancer Research Institute, University of Texas Health Science Center, San Antonio, TX) provided Rh-18 rhabdomyosarcoma (RRID:CVCL_1659). Pooled donor human umbilical vein endothelial cells (HUVEC, Lonza, cat. CC-2519) and human mesenchymal stem cells (hMSC, Lonza, cat. PT-2501) were purchased from Lonza (Walkersville, MD).
Cell Culture. […]

[1] = curve of first compound, second compound 0.03 µM
[2] = curve of first compound, second compound 0.0949 µM
[3] = curve of first compound, second compound 0.3 µM
[4] = curve of first compound, second compound 0.949 µM
[5] = curve of first compound, second compound 3 µM

CCN1CCN(Cc2ccc(Nc3ncc(F)c(-c4cc(F)c5nc(C)n(C(C)C)c5c4)n3)nc2)CC1 + CCN1C(C(=O)NC23CCC(C(=O)O)(CC2)CC3)C(c2cccc(Cl)c2F)C2(C(=O)Nc3cc(Cl)ccc32)C12CCCCC2
IC50 [1]: > 1000 nM
IC50 [2]: > 1000 nM
IC50 [3]: > 1000 nM
IC50 [4]: > 1000 nM
IC50 [5]: > 1000 nM
viability, T/C (second compound 0.03 µM, first compound 0.00316 µM): 100%
viability, T/C (second compound 0.03 µM, first compound 0.01 µM): 88%
viability, T/C (second compound 0.03 µM, first compound 0.0316 µM): 99.1%
viability, T/C (second compound 0.03 µM, first compound 0.1 µM): 129%
viability, T/C (second compound 0.03 µM, first compound 0.316 µM): 123%
viability, T/C (second compound 0.03 µM, first compound 1 µM): 75.7%
viability, T/C (second compound 0.0949 µM, first compound 0.00316 µM): 97.4%
viability, T/C (second compound 0.0949 µM, first compound 0.01 µM): 116%
viability, T/C (second compound 0.0949 µM, first compound 0.0316 µM): 121%
viability, T/C (second compound 0.0949 µM, first compound 0.1 µM): 110%
viability, T/C (second compound 0.0949 µM, first compound 0.316 µM): 105%
viability, T/C (second compound 0.0949 µM, first compound 1 µM): 87.5%
viability, T/C (second compound 0.3 µM, first compound 0.00316 µM): 119%
viability, T/C (second compound 0.3 µM, first compound 0.01 µM): 114%
viability, T/C (second compound 0.3 µM, first compound 0.0316 µM): 74.9%
viability, T/C (second compound 0.3 µM, first compound 0.1 µM): 86.1%
viability, T/C (second compound 0.3 µM, first compound 0.316 µM): 106%
viability, T/C (second compound 0.3 µM, first compound 1 µM): 88.7%
viability, T/C (second compound 0.949 µM, first compound 0.00316 µM): 105%
viability, T/C (second compound 0.949 µM, first compound 0.01 µM): 107%
viability, T/C (second compound 0.949 µM, first compound 0.0316 µM): 123%
viability, T/C (second compound 0.949 µM, first compound 0.1 µM): 74.5%
viability, T/C (second compound 0.949 µM, first compound 0.316 µM): 107%
viability, T/C (second compound 0.949 µM, first compound 1 µM): 106%
viability, T/C (second compound 3 µM, first compound 0.00316 µM): 98.2%
viability, T/C (second compound 3 µM, first compound 0.01 µM): 127%
viability, T/C (second compound 3 µM, first compound 0.0316 µM): 128%
viability, T/C (second compound 3 µM, first compound 0.1 µM): 76.1%
viability, T/C (second compound 3 µM, first compound 0.316 µM): 113%
viability, T/C (second compound 3 µM, first compound 1 µM): 83.1%

COc1c(OCCCN2CCOCC2)ccc2c3n(c(=NC(=O)c4cnc(N)nc4)nc12)CCN3
viability, T/C (compound 0.00316 µM): 114% and 91.5% and 87.9%
viability, T/C (compound 0.01 µM): 97.9% and 112% and 97.6%
viability, T/C (compound 0.0316 µM): 93.2% and 99.9% and 112%
viability, T/C (compound 0.1 µM): 93.2% and 52.7% and 108%
viability, T/C (compound 0.316 µM): 110% and 89.6% and 115%
viability, T/C (compound 1 µM): 81.5% and 92.5% and 114%
IC50 (curve of compound): > 1000 nM

Cc1nc(N2CCC3(CC2)COC(C)C3N)c(CO)nc1Sc1ccnc(N)c1Cl (configuration not stated) + CCN1C(C(=O)NC23CCC(C(=O)O)(CC2)CC3)C(c2cccc(Cl)c2F)C2(C(=O)Nc3cc(Cl)ccc32)C12CCCCC2
IC50 [1]: > 3000 nM
IC50 [2]: > 3000 nM
IC50 [3]: > 3000 nM
IC50 [4]: > 3000 nM
IC50 [5]: > 3000 nM
viability, T/C (second compound 0.03 µM, first compound 0.00949 µM): 103%
viability, T/C (second compound 0.03 µM, first compound 0.03 µM): 119%
viability, T/C (second compound 0.03 µM, first compound 0.0949 µM): 119%
viability, T/C (second compound 0.03 µM, first compound 0.3 µM): 119%
viability, T/C (second compound 0.03 µM, first compound 0.949 µM): 114%
viability, T/C (second compound 0.03 µM, first compound 3 µM): 95.9%
viability, T/C (second compound 0.0949 µM, first compound 0.00949 µM): 110%
viability, T/C (second compound 0.0949 µM, first compound 0.03 µM): 91.5%
viability, T/C (second compound 0.0949 µM, first compound 0.0949 µM): 123%
viability, T/C (second compound 0.0949 µM, first compound 0.3 µM): 102%
viability, T/C (second compound 0.0949 µM, first compound 0.949 µM): 104%
viability, T/C (second compound 0.0949 µM, first compound 3 µM): 84.3%
viability, T/C (second compound 0.3 µM, first compound 0.00949 µM): 101%
viability, T/C (second compound 0.3 µM, first compound 0.03 µM): 116%
viability, T/C (second compound 0.3 µM, first compound 0.0949 µM): 104%
viability, T/C (second compound 0.3 µM, first compound 0.3 µM): 101%
viability, T/C (second compound 0.3 µM, first compound 0.949 µM): 110%
viability, T/C (second compound 0.3 µM, first compound 3 µM): 90.6%
viability, T/C (second compound 0.949 µM, first compound 0.00949 µM): 116%
viability, T/C (second compound 0.949 µM, first compound 0.03 µM): 105%
viability, T/C (second compound 0.949 µM, first compound 0.0949 µM): 98.5%
viability, T/C (second compound 0.949 µM, first compound 0.3 µM): 96%
viability, T/C (second compound 0.949 µM, first compound 0.949 µM): 91.9%
viability, T/C (second compound 0.949 µM, first compound 3 µM): 102%
viability, T/C (second compound 3 µM, first compound 0.00949 µM): 99.9%
viability, T/C (second compound 3 µM, first compound 0.03 µM): 97.5%
viability, T/C (second compound 3 µM, first compound 0.0949 µM): 102%
viability, T/C (second compound 3 µM, first compound 0.3 µM): 120%
viability, T/C (second compound 3 µM, first compound 0.949 µM): 88.2%
viability, T/C (second compound 3 µM, first compound 3 µM): 115%
